System: IMiD/CELMoD resistant cell line DF-15R
Assay: Rescue: rechallenge of chronically stimulated anti-BCMA CAR T cells with DF-15R
Assay type: cell-based, human
Settings: DF-15R rechallenge after 7-day chronic stimulation
Description: Studies were undertaken to determine whether Compound A (iberdomide, (S)-3-[4-(4-morpholin-4-ylmethyl-benzyloxy)-1-oxo-1,3-dihydro-isoindol-2-yl]-piperidine-2,6-dione) rescued anti-BCMA CAR T cell function following chronic stimulation. To directly stimulate via CAR engagement to induce chronic stimulation of cells, anti-BCMA CAR T cells were stimulated with BCMA conjugated beads (diameter about 4.5 μm from a 50 μg/ml BCMA-conjugated bead composition, generated as described in Example 9) at a ratio of T cells to beads of 1:1. The cells were then incubated at 37° C., 5% CO2 for 7 days.
To further elucidate the role of Compound A on the target cells compared to the CAR T cell intrinsic effects, the IMiD/CELMoD resistant cell line DF-15R was also used to rechallenge anti-BCMA CAR T cells that had been chronically stimulated for 7 days. Cytolytic activity and cytokine production following the rechallenge were assessed as described above.

O=C1CC[C@H](N2Cc3c(OCc4ccc(CN5CCOCC5)cc4)cccc3C2=O)C(=O)N1 [Compound A, (S)-3-[4-(4-morpholin-4-ylmethyl-benzyloxy)-1-oxo-1,3-dihydro-isoindol-2-yl]-piperidine-2,6-dione]
cytolytic activity (Compound A 1 or 10 nM, FIG. 11A): increased cytolytic activity
cytokine production (IFN-gamma, IL-2, TNF-alpha) (FIG. 11B-D): increased

Source: patent publication US20230165872A1, “COMBINATION OF BCMA-DIRECTED T CELL THERAPY AND AN IMMUNOMODULATORY COMPOUND” (Juno Therapeutics, Inc., priority 2020, published 2023)
